Assay results as given in patent US20210395239A1 (Hoffmann-La Roche Inc., priority 2018, published 2021).

Each molecule was assayed against T1, hTLR9 (Homo sapiens, UniProt Q9NR96) (assay: HEK293-Blue-hTLR-9 cells assay (SEAP reporter, ODN2006 stimulation)). Details: HEK293-Blue-hTLR9 cells, ODN2006, 20 hrs; read-out: HEK/hTLR9 IC50.
T1 sequence (Q9NR96 26-1032): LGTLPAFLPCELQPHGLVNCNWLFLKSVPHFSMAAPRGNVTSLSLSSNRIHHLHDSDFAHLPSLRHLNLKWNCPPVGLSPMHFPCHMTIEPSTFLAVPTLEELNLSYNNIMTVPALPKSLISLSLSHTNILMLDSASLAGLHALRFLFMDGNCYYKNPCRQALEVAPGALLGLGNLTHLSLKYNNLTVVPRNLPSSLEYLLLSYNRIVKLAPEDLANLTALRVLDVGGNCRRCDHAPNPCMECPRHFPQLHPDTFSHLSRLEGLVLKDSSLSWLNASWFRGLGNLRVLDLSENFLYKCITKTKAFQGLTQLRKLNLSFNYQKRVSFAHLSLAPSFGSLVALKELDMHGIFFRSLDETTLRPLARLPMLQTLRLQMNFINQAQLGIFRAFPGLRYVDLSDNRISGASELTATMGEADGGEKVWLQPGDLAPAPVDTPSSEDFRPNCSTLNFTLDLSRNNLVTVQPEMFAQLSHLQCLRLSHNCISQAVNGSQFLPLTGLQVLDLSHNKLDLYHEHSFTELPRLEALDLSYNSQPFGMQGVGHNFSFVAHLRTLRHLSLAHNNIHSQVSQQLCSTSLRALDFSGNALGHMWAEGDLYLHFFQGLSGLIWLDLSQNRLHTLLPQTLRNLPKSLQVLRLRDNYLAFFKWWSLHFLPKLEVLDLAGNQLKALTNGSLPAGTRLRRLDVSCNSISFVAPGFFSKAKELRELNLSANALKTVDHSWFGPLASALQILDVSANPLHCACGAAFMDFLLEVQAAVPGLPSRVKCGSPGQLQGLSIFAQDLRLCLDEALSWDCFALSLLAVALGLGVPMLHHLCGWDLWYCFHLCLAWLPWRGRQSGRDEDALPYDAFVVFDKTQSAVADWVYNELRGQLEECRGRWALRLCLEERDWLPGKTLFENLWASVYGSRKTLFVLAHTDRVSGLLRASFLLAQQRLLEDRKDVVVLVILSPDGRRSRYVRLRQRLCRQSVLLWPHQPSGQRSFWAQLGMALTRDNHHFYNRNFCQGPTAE
Format: cell-based
Design: host or cells: HEK293 (HEK-Blue hTLR9)
Source text: HEK293-Blue-hTLR-9 Cells Assay:
A stable HEK293-Blue-hTLR-9 cell line was purchased from InvivoGen (Cat. #: hkb-htlr9, San Diego, Calif., USA). These cells were originally designed for studying the stimulation of human TLR9 by monitoring the activation of NF-κB. A SEAP (secreted embryonic alkaline phosphatase) reporter gene was placed under the control of the IFN-β minimal promoter fused to five NF-κB and AP-1-binding sites. The SEAP was induced by activating NF-κB and AP-1 via stimulating HEK-Blue hTLR9 cells with TLR9 ligands. Therefore the reporter expression was declined by TLR9 antagonist under the stimulation of a ligand, such as ODN2006 (Cat. #: tlrl-2006-1, Invivogen, San Diego, Calif., USA), for incubation of 20 hrs. The cell culture supernatant SEAP reporter activity was determined using QUANTI-Blue™ kit (Cat. #: rep-qb1, Invivogen, San Diego, Calif., USA) at a wavelength of 640 nm, a detection medium that turns purple or blue in the presence of alkaline phosphatase.
HEK293-Blue-hTLR9 cells were incubated at a density of 250,000˜450,000 cells/mL in a volume of 170 μL in a 96-well plate in Dulbecco's Modified Eagle's medium (DMEM) containing 4.5 g/L glucose, 50 U/mL penicillin, […], 2 mM L-glutamine, 10% (v/v) heat-inactivated fetal bovine serum with addition of 20 μL test compound in a serial dilution in the presence of final DMSO at 1% and 10 μL of 20 uM ODN2006 in above DMEM, perform incubation under 37° C. in a CO2 incubator for 20 hrs. Then 20 μL of the supernatant from each well was incubated with 180 μL Quanti-blue substrate solution at 37° C. for 2 h and the absorbance was read at 620-655 nm using a spectrophotometer. The signaling pathway that TLR9 activation leads to downstream NF-κB activation has been widely accepted, and therefore similar reporter assay was modified for evaluating TLR9 antagonist.

In order of falling IC50:
1. C[C@@H]1CN(c2ccc(C#N)c3ncccc23)C[C@H](CN2CCN(c3ccnc(N4C[C@@H](N)[C@H](F)C4)n3)CC2)O1 [Example 96, 5-[(2S,6R)-2-[[4-[2-[(3R,4R)-3-amino-4-fluoro-pyrrolidin-1-yl]pyrimidin-4-yl]piperazin-1-yl]methyl]-6-methyl-morpholin-4-yl]quinoline-8-carbonitrile]  109 nM
2. C[C@@H]1CN(c2ccc(C#N)c3ncccc23)C[C@H](CN2CCN(c3ccnc(N4C[C@H]5NCCO[C@@H]5C4)n3)CC2)O1 [Example 103, 5-[(2S,6R)-2-[[4-[2-[(4aR,7aR)-3,4,4a,5,7,7a-hexahydro-2H-pyrrolo[3,4-b][1,4]oxazin-6-yl]pyrimidin-4-yl]piperazin-1-yl]methyl]-6-methyl-morpholin-4-yl]quinoline-8-carbonitrile]  100 nM
3. C[C@@H]1CN(c2ccc(C#N)c3nccnc23)C[C@H](CN2CCN(c3ccnc(N4CC[C@@H](N)[C@H](F)C4)n3)CC2)O1 [Example 113, 8-[(2S,6R)-2-[[4-[2-[(3R,4R)-4-amino-3-fluoro-1-piperidyl]pyrimidin-4-yl]piperazin-1-yl]methyl]-6-methyl-morpholin-4-yl]quinoxaline-5-carbonitrile]  98 nM
4. Cc1cnc(N2CCN(C[C@H]3CN(c4ccc(C#N)c5ncccc45)C[C@@H](C)O3)CC2)nc1N1CCNCC1 [Example 102, 5-[(2R,6S)-2-methyl-6-[[4-(5-methyl-4-piperazin-1-yl-pyrimidin-2-yl)piperazin-1-yl]methyl]morpholin-4-yl]quinoline-8-carbonitrile]  80 nM
5. C[C@@H]1CN(c2ccc(C#N)c3nccnc23)C[C@H](CN2CCN(c3ccnc(N4C[C@H](N)[C@@H](F)C4)n3)CC2)O1 [Example 107, 8-[(2S,6R)-2-[[4-[2-[(3S,4S)-3-amino-4-fluoro-pyrrolidin-1-yl]pyrimidin-4-yl]piperazin-1-yl]methyl]-6-methyl-morpholin-4-yl]quinoxaline-5-carbonitrile]  80 nM
6. CO[C@H]1CN(c2cc(C)nc(N3CCN(C[C@H]4CN(c5ccc(C#N)c6nccnc56)C[C@@H](C)O4)CC3)n2)C[C@@H]1N [Example 104, 8-[(2S,6R)-2-[[4-[4-[(3S,4S)-3-amino-4-methoxy-pyrrolidin-1-yl]-6-methyl-pyrimidin-2-yl]piperazin-1-yl]methyl]-6-methyl-morpholin-4-yl]quinoxaline-5-carbonitrile]  70 nM
7. C[C@@H]1CN(c2ccc(C#N)c3nccnc23)C[C@H](CN2CCN(c3ccnc(N4C[C@@H](N)[C@@H](F)C4)n3)CC2)O1 [Example 108, 8-[(2S,6R)-2-[[4-[2-[(3R,4S)-3-amino-4-fluoro-pyrrolidin-1-yl]pyrimidin-4-yl]piperazin-1-yl]methyl]-6-methyl-morpholin-4-yl]quinoxaline-5-carbonitrile]  68 nM
8. C[C@@H]1CN(c2ccc(C#N)c3ncccc23)C[C@H](CN2CCN(c3ccnc(N4C[C@H](N)[C@@H](F)C4)n3)CC2)O1 [Example 110, 5-[(2S,6R)-2-[[4-[2-[(3S,4S)-3-amino-4-fluoro-pyrrolidin-1-yl]pyrimidin-4-yl]piperazin-1-yl]methyl]-6-methyl-morpholin-4-yl]quinoline-8-carbonitrile]  68 nM
9. Cc1cc(N2CCN(C[C@H]3CN(c4ccc(C#N)c5nccnc45)C[C@@H](C)O3)CC2)nc(N2CC(N)C2)n1 [Example 112, 8-[(2S,6R)-2-[[4-[2-(3-aminoazetidin-1-yl)-6-methyl-pyrimidin-4-yl]piperazin-1-yl]methyl]-6-methyl-morpholin-4-yl]quinoxaline-5-carbonitrile]  65 nM
10. CO[C@H]1CN(c2nccc(N3CCN(C[C@H]4CN(c5ccc(C#N)c6nccnc56)C[C@@H](C)O4)CC3)n2)C[C@@H]1N [Example 99, 8-[(2S,6R)-2-[[4-[2-[(3S,4S)-3-amino-4-methoxy-pyrrolidin-1-yl]pyrimidin-4-yl]piperazin-1-yl]methyl]-6-methyl-morpholin-4-yl]quinoxaline-5-carbonitrile]  63 nM
11. Cc1cc(N2CCNCC2)nc(N2CCN(C[C@H]3CN(c4ccc(C#N)c5nccnc45)C[C@@H](C)O3)CC2)n1 [Example 114, 8-[(2R,6S)-2-methyl-6-[[4-(4-methyl-6-piperazin-1-yl-pyrimidin-2-yl)piperazin-1-yl]methyl]morpholin-4-yl]quinoxaline-5-carbonitrile]  62 nM
12. CO[C@@H]1CN(c2nccc(N3CCN(C[C@H]4CN(c5ccc(C#N)c6nccnc56)C[C@@H](C)O4)CC3)n2)C[C@H]1N [Example 98, 8-[(2S,6R)-2-[[4-[2-[(3R,4R)-3-amino-4-methoxy-pyrrolidin-1-yl]pyrimidin-4-yl]piperazin-1-yl]methyl]-6-methyl-morpholin-4-yl]quinoxaline-5-carbonitrile]  49 nM
13. CO[C@H]1CN(c2nc(C)cc(N3CCN(C[C@H]4CN(c5ccc(C#N)c6nccnc56)C[C@@H](C)O4)CC3)n2)C[C@@H]1N [Example 106, 8-[(2S,6R)-2-[[4-[2-[(3S,4S)-3-amino-4-methoxy-pyrrolidin-1-yl]-6-methyl-pyrimidin-4-yl]piperazin-1-yl]methyl]-6-methyl-morpholin-4-yl]quinoxaline-5-carbonitrile]  46 nM
14. COC1CCN(c2nccc(N3CCN(C[C@H]4CN(c5ccc(C#N)c6ncccc56)C[C@@H](C)O4)CC3)n2)CC1N (stereo partly drawn) [Example 109, 5-[(2S,6R)-2-[[4-[2-(3-amino-4-methoxy-1-piperidyl)pyrimidin-4-yl]piperazin-1-yl]methyl]-6-methyl-morpholin-4-yl]quinoline-8-carbonitrile]  46 nM
15. Cc1cc(N2C[C@@H](N)[C@@H](F)C2)nc(N2CCN(C[C@H]3CN(c4ccc(C#N)c5nccnc45)C[C@@H](C)O3)CC2)n1 [Example 115, 8-[(2S,6R)-2-[[4-[4-[(3R,4S)-3-amino-4-fluoro-pyrrolidin-1-yl]-6-methyl-pyrimidin-2-yl]piperazin-1-yl]methyl]-6-methyl-morpholin-4-yl]quinoxaline-5-carbonitrile]  38 nM
16. C[C@@H]1CN(c2ccc(C#N)c3nccnc23)C[C@H](CN2CCN(c3ccnc(N4CC[C@H](N)[C@H](F)C4)n3)CC2)O1 [Example 111, 8-[(2S,6R)-2-[[4-[2-[(3R,4S)-4-amino-3-fluoro-1-piperidyl]pyrimidin-4-yl]piperazin-1-yl]methyl]-6-methyl-morpholin-4-yl]quinoxaline-5-carbonitrile]  37 nM
17. CO[C@H]1CN(c2ccnc(N3CCN(C[C@H]4CN(c5ccc(C#N)c6ncccc56)C[C@@H](C)O4)CC3)n2)C[C@@H]1N [Example 97, 5-[(2S,6R)-2-[[4-[4-[(3S,4S)-3-amino-4-methoxy-pyrrolidin-1-yl]pyrimidin-2-yl]piperazin-1-yl]methyl]-6-methyl-morpholin-4-yl]quinoline-8-carbonitrile]  34 nM
18. C[C@@H]1CN(c2ccc(C#N)c3ncccc23)C[C@H](CN2CCN(c3ccnc(N4C[C@@H](N)[C@@H](F)C4)n3)CC2)O1 [Example 101, 5-[(2S,6R)-2-[[4-[2-[(3R,4S)-3-amino-4-fluoro-pyrrolidin-1-yl]pyrimidin-4-yl]piperazin-1-yl]methyl]-6-methyl-morpholin-4-yl]quinoline-8-carbonitrile]  31 nM
